One test deals with MV-4-11 cells. The test is described as follows: Cell growth inhibition assay (CellTiter-Glo), MV-4-11. The format is cell-based. Particulars: Homo sapiens, MV4-11. The procedure: (§1) Cell Growth Inhibition Assay
(§2) The human leukemia cell lines MV-4-11, THP-1 and K-562 were employed to characterize the effect of BET inhibitors on cellular proliferation and viability. Cells were obtained from the American Type Culture Collection (ATCC) and cultured at 37° C. in a humidified 5% CO2 incubator in the following media: MV-4-11: DMEM high glucose (Animed #1-26F01-I), 10% FCS (Animed #2-01F26-I), 4 mM L-Glutamine (Animed #5-10K50), 1 mM Sodium Pyruvate (Animed # G03625P), 1× Penicillin-Streptomycin (Animed # F12478P); K-562: Iscove's MEM (Animed #1-28F16-I), 10% FCS (Animed #2-01F26-I), 4 mM L-Glutamine (Animed #5-10K50), 1× Penicillin-Streptomycin (Animed # F12478P); THP-1: RPMI-1640 (Animed #1-41F01-I), 10% FCS (Animed #2-01F26-I), 2 mM L-Glutamine (Animed #5-10K50), 10 mM HEPES (Animed #5-31F100), 1 mM Sodium Pyruvate (Animed # G03625P), 1× Penicillin-Streptomycin (Animed # F12478P). The AML lines MV-4-11 and THP-1 are very sensitive to BET inhibitors and show massive cell death upon BET inhibition (Zuber et al., Nature, 478 (2011), 524-8). Compound-mediated suppression of cell proliferation/viability was assessed by quantification of cellular ATP levels using the CellTiter-Glo (CTG) reagent (Promega). Briefly, cells were seeded in 20 μl fresh medium into 384-well plates, followed by addition of 5 μL medium containing compound dilutions at 5-fold their final intended concentration. Dose-response effects were assessed by 3-fold serial dilutions of the test compound, starting at 10 μM. Following incubation of the cells for 4 days at 37° C. and 5% CO2, the effect of inhibitors on cell viability was quantified following addition of 20 μl CTG and luminescence quantification (integration time: 100 ms) as per vendor manual, using a correspondingly equipped Tecan M200 multi-mode platereader (TECAN, Switzerland). For data analysis, the assay background value determined in wells containing medium, but no cells, was subtracted from all data points. To enable differentiation of cytotoxic from cytostatic compounds, the number of viable cells is assessed relative to that observed at the time of compound addition using a separate cell plate (day 0). The effect of a particular test compound concentration on cell proliferation/viability is expressed as percentage of the background- and day 0-corrected luminescence reading obtained for cells treated with vehicle only (DMSO, 0.1% final concentration), which is set as 100%, whereas that luminescence reading for wells containing medium is set as −100%. Compound concentrations leading to half-maximal (1050) and total growth inhibition (TGI) were determined using standard four parameter curve fitting.
Background: Cellular ATP, detected with luciferase, serves as a proxy for viable cell number.

The next test concerns THP-1 cells. The test is described as follows: Cell growth inhibition assay (CellTiter-Glo), THP-1. The format is cell-based. Particulars: Homo sapiens. The procedure:
as §1, §2

The next test deals with K-562 cells. The test is described as follows: Cell growth inhibition assay (CellTiter-Glo), K-562. It is filed as cell-based, human. The procedure:
as §1, §2

Where two headings read alike, the source gives them in different places.

For orientation: GI50 means the concentration giving 50% growth inhibition. The low end stands for greater sensitivity of the cells, the high end for lower sensitivity of the cells. Take `Cc1cc(N2C(=O)c3c(c(C4CC4)nn3-c3ccnn3C)C2c2ccc(Cl)cc2)cn2c(C)nnc12` (centres unmarked) [Example 117, 4-(4-chlorophenyl)-3-cyclopropyl-5-(3,8-dimethyl-[1,2,4]triazolo[4,3-a]pyridin-6-yl)-1-(1-methyl-1H-pyrazol-5-yl)-4,5-dihydropyrrolo-[3,4-c]pyrazol-6(1H)-one]: the GI50 in the test on MV-4-11 cells was determined as 18.6 nM; in the test on THP-1 cells, 31.8 nM; in the test with K-562 cells (Homo sapiens, K562), 150 nM.

Turning to `Cc1ncccc1-n1nc(C)c2c1C(=O)N(c1cc(C)c(=O)n(C)c1)C2c1ccc(Cl)cc1` (centres unmarked) [Example 82, 4-(4-chlorophenyl)-5-(1,5-dimethyl-6-oxo-1,6-dihydropyridin-3-yl)-3-methyl-1-(2-methylpyridin-3-yl)-4,5-dihydropyrrolo[3,4-c]pyrazol-6(1H)-one], the GI50 with MV-4-11 cells came to 94.8 nM; in the test on THP-1 cells, 222 nM; in the test with K-562 cells (Homo sapiens, K562), 920 nM.

Take `CCc1nn(C(=O)N(C)C)c2c1C(c1ccc(Cl)cc1)N(c1cc(C)c(=O)n(C)c1)C2=O` (centres unmarked) [Example 147, 4-(4-chlorophenyl)-5-(1,5-dimethyl-6-oxo-1,6-dihydropyridin-3-yl)-3-ethyl-N,N-dimethyl-6-oxo-5,6-dihydropyrrolo[3,4-c]pyrazole-1(4H)-carboxamide]: the GI50 was 67 nM in the test on MV-4-11 cells; 157 nM in the test with THP-1 cells; 792 nM in the test with K-562 cells (Homo sapiens, K562).

As to `Cc1c2c(nn1C1CC1)C(=O)N(c1cc(Cl)c(=O)n(C)c1)[C@@H]2c1ccc(Cl)cc1` [Example 19, (R)-5-(5-chloro-1-methyl-6-oxo-1,6-dihydropyridin-3-yl)-4-(4-chlorophenyl)-2-cyclopropyl-3-methyl-4,5-dihydropyrrolo-[3,4-c]pyrazol-6(2H)-one], the GI50 is 25.8 nM in the test on MV-4-11 cells; 74.6 nM with THP-1 cells; 242 nM in the test with K-562 cells (Homo sapiens, K562). This compound showed an IC (TGI) with K-562 cells of more than 10000 nM.

Turning to `Cc1nn(C(C)C)c2c1[C@H](c1ccc(Cl)cc1)N(c1cc(C)c(=O)n(C)c1)C2=O` [Example 103, (S)-4-(4-chlorophenyl)-5-(1,5-dimethyl-6-oxo-1,6-dihydropyridin-3-yl)-1-isopropyl-3-methyl-4,5-dihydropyrrolo-[3,4-c]pyrazol-6(1H)-one], the GI50 was 3590 nM in the test with MV-4-11 cells; 7290 nM in the test with THP-1 cells; more than 10000 nM in the test on K-562 cells (Homo sapiens, K562).

With `Cc1nn(C(C)C)c2c1C(c1ccc(F)cc1F)N(c1cc(C)c3nnc(C)n3c1)C2=O` (centres unmarked) [Example 174, 4-(2,4-difluorophenyl)-5-(3,8-dimethyl-[1,2,4]triazolo[4,3-a]pyridin-6-yl)-1-isopropyl-3-methyl-4,5-dihydropyrrolo[3,4-c]pyrazol-6(1H)-one], the GI50 worked out at 26.7 nM in the test on MV-4-11 cells; 43.8 nM in the test on THP-1 cells; 158 nM in the test with K-562 cells (Homo sapiens, K562).

In the case of `Cc1cc(N2C(=O)c3c(c(CO)nn3C3CC3)C2c2ccc(Cl)cc2)cn(C)c1=O` (centres unmarked) [Example 133, 4-(4-chlorophenyl)-1-cyclopropyl-5-(1,5-dimethyl-6-oxo-1,6-dihydropyridin-3-yl)-3-(hydroxymethyl)-4,5-dihydropyrrolo-[3,4-c]pyrazol-6(1H)-one], the GI50 in the test with MV-4-11 cells was 69 nM; with THP-1 cells, 166 nM; with K-562 cells (Homo sapiens, K562) it was 451 nM.

`Cc1cc(N2C(=O)c3c(c(CO)nn3C3CC3)[C@H]2c2ccc(Cl)cc2)cn2c(C)nnc12` [Example 166, (R)-4-(4-chlorophenyl)-1-cyclopropyl-5-(3,8-dimethyl-[1,2,4]triazolo[4,3-a]pyridin-6-yl)-3-(hydroxymethyl)-4,5-dihydropyrrolo-[3,4-c]pyrazol-6(1H)-one]: the GI50 in the test on MV-4-11 cells amounted to 9.38 nM; in the test with THP-1 cells it was 17.1 nM; in the test with K-562 cells (Homo sapiens, K562), 94.6 nM.

For the compound `COc1ncccc1-n1nc(C)c2c1C(=O)N(c1cc(C)c(=O)n(C)c1)[C@H]2c1ccc(Cl)cc1` [Example 127, (S)-4-(4-chlorophenyl)-5-(1,5-dimethyl-6-oxo-1,6-dihydropyridin-3-yl)-1-(2-methoxypyridin-3-yl)-3-methyl-4,5-dihydropyrrolo-[3,4-c]pyrazol-6(1H)-one], the GI50 in the test with MV-4-11 cells is 2260 nM; with THP-1 cells, 4230 nM; with K-562 cells (Homo sapiens, K562), more than 10000 nM.

Consider `CCc1nn(CCOC)c2c1C(c1ccc(Cl)cc1)N(c1cc(C)c3nnc(C)n3c1)C2=O` (centres unmarked) [Example 87, 4-(4-chlorophenyl)-5-(3,8-dimethyl-[1,2,4]triazolo[4,3-a]pyridin-6-yl)-3-ethyl-1-(2-methoxyethyl)-4,5-dihydropyrrolo-[3,4-c]pyrazol-6(1H)-one], for which the GI50 in the test on MV-4-11 cells was 16.4 nM; in the test on THP-1 cells it was 23.5 nM; in the test on K-562 cells (Homo sapiens, K562), 128 nM.

As for `COc1ncccc1-n1nc(C)c2c1C(=O)N(c1cc(C)c3nnc(C)n3n1)C2c1ccc(Cl)cc1` (centres unmarked) [Example 111, 4-(4-chlorophenyl)-5-(3,8-dimethyl-[1,2,4]triazolo[4,3-b]pyridazin-6-yl)-1-(2-methoxypyridin-3-yl)-3-methyl-4,5-dihydropyrrolo-[3,4-c]pyrazol-6(1H)-one], the GI50 in the test with MV-4-11 cells was found to be 16.2 nM; with THP-1 cells, 22 nM; in the test with K-562 cells (Homo sapiens, K562), 177 nM.

For the compound `COc1ncc(-n2nc(C)c3c2C(=O)N(c2cc(C)c(=O)n(C)c2)[C@H]3c2ccc(Cl)cc2)c(OC)n1` [Example 99, (S)-4-(4-chlorophenyl)-1-(2,4-dimethoxypyrimidin-5-yl)-5-(1,5-dimethyl-6-oxo-1,6-dihydropyridin-3-yl)-3-methyl-4,5-dihydropyrrolo-[3,4-c]pyrazol-6(1H)-one], the GI50 was 2000 nM in the test with MV-4-11 cells; 2840 nM with THP-1 cells; more than 10000 nM in the test on K-562 cells (Homo sapiens, K562). Further, the IC (TGI) in the test on K-562 cells is more than 10000 nM.

As for `CCn1nc2c(c1C)C(c1ccc(Cl)cc1F)N(c1cc(C)c3nnc(C)n3c1)C2=O` (centres unmarked) [Example 186, 4-(4-chloro-2-fluorophenyl)-5-(3,8-dimethyl-[1,2,4]triazolo[4,3-a]pyridin-6-yl)-2-ethyl-3-methyl-4,5-dihydropyrrolo-[3,4-c]pyrazol-6(2H)-one], the GI50 in the test with MV-4-11 cells came out at 44.1 nM; in the test on THP-1 cells, 61.5 nM; with K-562 cells (Homo sapiens, K562) it was 208 nM.

Consider `Cc1nn(C(C)C)c2c1C(c1ccc(Cl)cc1F)N(c1cc(C)c3nnc(C)n3c1)C2=O` (centres unmarked) [Example 168, 4-(4-chloro-2-fluorophenyl)-5-(3,8-dimethyl-[1,2,4]triazolo[4,3-a]pyridin-6-yl)-1-isopropyl-3-methyl-4,5-dihydropyrrolo[3,4-c]pyrazol-6(1H)-one], for which the GI50 with MV-4-11 cells is 24.1 nM; with THP-1 cells it was 35.5 nM; in the test with K-562 cells (Homo sapiens, K562), 105 nM.

In the case of `Cc1cc(N2C(=O)c3c(c(C4CC4)nn3C)C2c2ccc(Cl)cc2)cn2c(C)nnc12` (racemic) [Example 129, 4-(4-chlorophenyl)-3-cyclopropyl-5-(3,8-dimethyl-[1,2,4]triazolo[4,3-a]pyridin-6-yl)-1-methyl-4,5-dihydropyrrolo-[3,4-c]pyrazol-6(1H)-one], the GI50 in the test on MV-4-11 cells amounted to 14.5 nM; in the test on THP-1 cells, 22.6 nM; in the test with K-562 cells (Homo sapiens, K562) it was 98.9 nM.

Take `COc1ncc(-n2nc3c(c2C)C(c2ccc(Cl)cc2)N(c2cc(Cl)c(=O)n(C)c2)C3=O)c(OC)n1` (centres unmarked) [Example 55, 5-(5-chloro-1-methyl-6-oxo-1,6-dihydropyridin-3-yl)-4-(4-chlorophenyl)-2-(2,4-dimethoxypyrimidin-5-yl)-3-methyl-4,5-dihydropyrrolo[3,4-c]pyrazol-6(2H)-one]: the GI50 with MV-4-11 cells came to 89.1 nM; in the test on THP-1 cells, 231 nM; in the test with K-562 cells (Homo sapiens, K562), 400 nM.

For `COc1ncc(-n2nc(C)c3c2C(=O)N(c2cc(C)c(=O)n(C)c2)C3c2ccc(Cl)cc2)c(OC)n1` (racemic) [Example 52, 4-(4-chlorophenyl)-1-(2,4-dimethoxypyrimidin-5-yl)-5-(1,5-dimethyl-6-oxo-1,6-dihydropyridin-3-yl)-3-methyl-4,5-dihydropyrrolo[3,4-c]pyrazol-6(1H)-one], the GI50 in the test with MV-4-11 cells was found to be 97.4 nM; with THP-1 cells it was 198 nM; with K-562 cells (Homo sapiens, K562) it was 424 nM. Further, the IC (TGI) in the test on MV-4-11 cells is 156 nM; in the test on THP-1 cells, 345 nM; in the test on K-562 cells (Homo sapiens, K562) it was more than 10000 nM.

Source of the values: patent US20160095843A1, “PYRAZOLOPYRROLIDINE DERIVATIVES AND THEIR USE IN THE TREATMENT OF DISEASE” (NOVARTIS AG, priority 2013, published 2016).
